Data taken from patent US6884415B2, “Antioxidation food product, antioxidation preparation and antioxidation method” (Otsuka Pharmaceutical Co., Ltd., priority 1993, dated 2005).

Target: T1, MPO (myeloperoxidase) (Homo sapiens, UniProt P05164)
T1 sequence (P05164 49-745): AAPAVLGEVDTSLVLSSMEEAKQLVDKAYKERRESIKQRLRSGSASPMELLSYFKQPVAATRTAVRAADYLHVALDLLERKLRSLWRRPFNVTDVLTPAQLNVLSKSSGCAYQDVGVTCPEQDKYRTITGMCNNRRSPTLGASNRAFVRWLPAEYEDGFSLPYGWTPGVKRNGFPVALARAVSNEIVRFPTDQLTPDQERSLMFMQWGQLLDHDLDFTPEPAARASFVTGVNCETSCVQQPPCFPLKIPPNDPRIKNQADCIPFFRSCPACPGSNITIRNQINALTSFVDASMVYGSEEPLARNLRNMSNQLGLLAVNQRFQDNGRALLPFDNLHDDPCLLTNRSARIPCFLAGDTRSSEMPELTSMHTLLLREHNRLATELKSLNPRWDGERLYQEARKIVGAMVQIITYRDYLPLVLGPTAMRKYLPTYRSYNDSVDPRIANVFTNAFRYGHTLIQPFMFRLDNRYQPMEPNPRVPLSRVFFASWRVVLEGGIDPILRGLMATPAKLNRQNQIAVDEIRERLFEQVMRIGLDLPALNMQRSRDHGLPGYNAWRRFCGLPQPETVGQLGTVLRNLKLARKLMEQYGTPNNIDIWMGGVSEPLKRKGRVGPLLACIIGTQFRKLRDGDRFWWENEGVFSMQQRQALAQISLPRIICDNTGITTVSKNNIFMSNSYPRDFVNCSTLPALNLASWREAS
Assay: MPO (myeloperoxidase) activity inhibition
Assay type: biochemical
Conditions: MPO purified enzyme, pH 5.4, 25° C.
Protocol: To 2.9 ml of a 50 mM phosphate buffer (pH: 5.4) containing 0.1% hydrogen peroxide and 1.03 mM o-dianisidine, 50 μl of a test solution and 50 μl of a MPO purified enzyme (1.24 units/ml) were added and, after incubating in a cuvet at 25° C., measuring a change in absorbance (λ: 450 nm) was measured for 5 minutes. As a blank, 50 μl of a 50 mM phosphate buffer (pH: 5.4) was used.
As the test solution, a tea extract solution obtained by extracting a green tea with hot water and a solution obtained by measuring the concentration of Mn in the tea extract solution and adding MnCl2 in an APT broth so that the concentration of Mn in the medium may be the same as that of the tea extract solution were used. Then, […]
Therefore, it was examined whether the component contained in the tea other than Mn is connected with the MPO activity inhibition or not. That is, according to the same manner as that described above, the MPO inhibition activity was examined using a purified catechin as the component other than Mn.

## catechin
  concentration at which the MPO inhibition effect is exhibited: ≥ 1.5 µg/mL
